From PMC5175396, “Cytotoxicity of Plumbagin, Rapanone and 12 other naturally occurring Quinones from Kenyan Flora towards human carcinoma cells” (BMC Pharmacology & Toxicology, 2016) come the findings set out here.

Series [1] concerns six tested cancer cell lines (A549, SPC212, DLD-1, Caco-2, MCF-7, HepG2). Briefly: Neutral red uptake assay, statements over the six tested cancer cell lines. The class given is cell-based, human. Conditions: for IC50: Homo sapiens, bound valid for all six cancer cell lines, neutral red assay; for selectivity indexes (CRL2120 vs carcinoma cells), lower bound over the cancer cell lines: IC50 CRL2120 / IC50 cancer cell line. The source says: (§1) Six human cancer cell lines and one normal cell line were used in this study. They included A549 human non-small cell lung cancer (NSCLC) cell line, obtained from the Institute for Fermentation, Osaka (IFO, Japan) and provided by Prof. Dr. Tansu Koparal (Anadolu University, Eskisehir, Turkey), SPC212 human mesothelioma cell line obtained from American Type Culture Collection (ATCC) and provided by Dr. Asuman Demiroğlu Zergeroğlu (Gebze Technical University, Kocaeli, Turkey), DLD-1 colorectal adenocarcinoma cell lines obtained from ATCC (CCL-221), Caco2 colorectal adenocarcinoma cells (ATCC, HTB-37) obtained from the ŞAP Institute of Turkey (Ankara), HepG2 hepatocarcinoma cells (ATCC, HB-8065) and MCF-7 breast adenocarcinoma cells (ATCC, HTB-22) were provided by Prof. Dr. Tansu Koparal (Anadolu University, Eskisehir, Turkey). The normal CRL2120 human skin fibroblasts were obtained from ATCC [CCD1094Sk (ATCC, CRL-2120)]. The cells were maintained as a monolayer in DMEM medium (Sigma-aldrich, Munich, Germany) medium supplemented with 10% fetal calf serum and 1% penicillin (100 U/mL)-streptomycin (100 μg/mL) in a humidified 5% CO2 atmosphere at 37 °C.
(§2) The cytotoxicity of samples was performed by NR uptake assay as previously described. This method is based on the ability of viable cells to incorporate and bind the supravital dye NR in the lysosomes. The procedure is cheaper and more sensitive than other cytotoxicity tests. […] Briefly, cells were detached by treatment with 0.25% trypsin/EDTA (Invitrogen) and an aliquot of 1 × 10^4 cells was placed in each well of a 96-well cell culture plate […]. The cells were allowed to attach overnight and subsequently treated with different concentrations of the 14 compounds. Each of the studied samples was immediately added in varying concentrations in additional 100 μL of culture medium to obtain a total volume of […]/well. After 72 h incubation in humidified 5% CO2 atmosphere at 37 °C, the medium was removed and 200 μL fresh medium containing 50 μg/mL NR was added to each well and incubation continued for an additional 3 h at 37 °C in 5% CO2 atmosphere. The dye medium was then removed and each well was then washed rapidly with 200 μL phosphate buffer saline (PBS) followed by addition of 200 μL of acetic acid-water-ethanol in water (1:49:50). The plates were kept for 15 min at room temperature to extract the dye and then shaken for a few minutes on a GFL 3012 shaker (Gesellschaft für Labortechnik mbH, Burgwedel, Germany). Absorbance was measured on ELx 808 Ultra Microplate Reader (Biotek) equipped with a 540 nm filter. Each assay was done at least three times, with three replicates each. The viability was evaluated based on a comparison with untreated cells. The IC50 values represent the sample’s concentrations required to inhibit 50% of cell proliferation and were calculated from a calibration curve by linear regression using Microsoft Excel.

In series [2] the test system is MCF-7 cells. Put plainly: Mitochondrial membrane potential (MMP) analysis, JC-1 staining, flow cytometry. The class given is cell-based, human. Conditions: IC50 (C3), 72 h, control 4.3%. As to the method: The MMP was analyzed in MCF-7 cells by 5,5′,6,6′-tetrachloro-1,1′,3,3′-tetraethylbenzimidazolylcarbocyanine iodide) (JC-1; Biomol, Hamburg, Germany) staining as previously reported. […] Subsequently, cells were measured in a BD FACS Aria I Cell Sorter Flow Cytometer (Becton-Dickinson, Germany). The JC-1 signal was measured at an excitation of 561 nm (150 mW) and detected using a 586/15 nm band-pass filter. The signal was analyzed at 640 nm excitation (40 mW) and detected using a 730/45 nm bandpass filter. Cytographs were analyzed using BD FACSDiva™ Flow Cytometry Software Version 6.1.2 (Becton-Dickinson). All experiments were performed at least in triplicate.

Series [3] has as its system Caco2 colorectal adenocarcinoma cells. Briefly: Neutral red (NR) uptake cytotoxicity assay, Caco-2. The class given is cell-based, human. Conditions: Homo sapiens, Caco-2; neutral red assay, 72 h incubation.
Text: as §1, §2

Series [4] concerns MCF-7 breast adenocarcinoma cells. Put plainly: Neutral red (NR) uptake cytotoxicity assay, MCF-7. The class given is cell-based, human. The settings on record: for IC50: read-out: IC50 MCF-7; for selectivity index MCF-7: IC50 in CRL2120 normal fibroblasts divided by IC50 in MCF-7.
Text: as §1, §2

In series [5] the test system is MCF-7 cells. Put plainly: Measurement of reactive oxygen species (ROS), DCFH-DA. The class given is cell-based, human. The settings on record: at IC50, 24 h. On the procedure:
This is a cell-based assay for measuring hydroxyl, peroxyl, or other reactive oxygen species activity within a cell. The assay employs the cell-permeable fluorogenic probe 2′,7′-dichlorodihydrofluorescin diacetate (DCFH-DA). DCFH-DA is diffused into cells and is deacetylated by cellular esterases to non-fluorescent 2′,7′-dichlorodihydrofluorescin (DCFH), which is rapidly oxidized to highly fluorescent 2′,7′-dichlorofluorescein (DCF) by ROS. […] After addition of 100 μL 1× DCFH-DA/DMEM solution to cells and incubation at 37 °C for 30–60 min, the fluorescence was measured using SpectraMax® M5 Microplate Reader (Molecular Devices, Biberach, Germany) at 480/530 nm. All experiments were performed at least in triplicate.

Series [6] relates to HepG2 hepatocarcinoma cells. Put plainly: Neutral red (NR) uptake cytotoxicity assay, HepG2. The class given is cell-based, human. Conditions: for IC50: Homo sapiens, read-out: IC50 HepG2; for selectivity index HepG2: IC50 in CRL2120 normal fibroblasts divided by IC50 in HepG2.
Text: as §1, §2

Series [7] deals with normal CRL2120 human skin fibroblasts. Put plainly: Neutral red (NR) uptake cytotoxicity assay, normal CRL2120 fibroblasts. Conditions: Skin fibroblast, 72 h incubation. The class given is cell-based.
Text: as §1, §2

For series [8], the system named is SPC212 human mesothelioma cell line. Briefly: Neutral red (NR) uptake cytotoxicity assay, SPC212. The class given is cell-based. Conditions: for IC50: Homo sapiens, 72 h; for selectivity index SPC212: IC50 in CRL2120 normal fibroblasts divided by IC50 in SPC212.
Text: as §1, §2

Series [9] has as its system DLD-1 colorectal adenocarcinoma cell lines. Put plainly: Neutral red (NR) uptake cytotoxicity assay, DLD-1. The class given is cell-based, human. The settings on record: for IC50: Homo sapiens, read-out: IC50 DLD-1; for selectivity index DLD-1: IC50 in CRL2120 normal fibroblasts divided by IC50 in DLD-1.
Text: as §1, §2

Series [10] relates to MCF-7 cells. Put plainly: Flow cytometry cell cycle analysis and detection of apoptotic cells. It is filed as cell-based, human. The settings on record: IC50, 72 h, non-treated cells 3.1%. As to the method:
The cell-cycle analysis was performed by flow cytometry using BD cycletest^TM Plus DNA Kit Assay (BD Biosciences, San Jose, USA). The BD Cycletest™ Plus DNA kit provides a set of reagents for isolating and staining cell nuclei. Flow cytometric analysis of differentially stained cells is used to estimate the DNA index (DI) and cell-cycle phase distributions. Briefly, MCF-7 cells (3 mL, 1 × 10^5 cells/mL) were seeded into each well of 6-well plates and allowed to attach for 24 h. […] The untreated cells (control) were also included in the assay. They were further trypsinized and suspended in 1 mL PBS, then centrifuged at 400 g for 5 min at room temperature (RT). The cells were further processed according to the manufacturer protocol: addition of 250 μL of solution A (trypsin buffer), 10 min incubation at RT followed by the addition of 200 μL of solution B (trypsin inhibitor and RNAse buffer), 10 min incubation at RT followed by the addition of 200 μL of solution C (2–8 °C) (propidium iodide stain solution), 10 min on ice. The cells were further measured on a BD FACS Aria I Cell Sorter Flow Cytometer (Becton-Dickinson, Germany). For each sample, 10^4 cells were counted. For PI excitation, an argon-ion laser emitting at 488 nm was used. Cytographs were analyzed using BD FACSDiva™ Flow Cytometry Software Version 6.1.2 (Becton-Dickinson).

A short description of series [11]: Neutral red (NR) uptake cytotoxicity assay, Caco-2. The class given is cell-based, human. Conditions: human; IC50 in CRL2120 normal fibroblasts divided by IC50 in Caco-2; read-out: selectivity index Caco-2 (converted).
Text: as §1, §2

Series [12] has as its system A549 human non-small cell lung cancer (NSCLC) cell line. Briefly: Neutral red (NR) uptake cytotoxicity assay, A549. The settings on record: for IC50: neutral red assay, 72 h incubation; for selectivity index A549: IC50 in CRL2120 normal fibroblasts divided by IC50 in A549. It is filed as cell-based.
Text: as §1
as §2, with “lysosomes.” for “lysosomes. The procedure is cheaper and more sensitive than other cytotoxicity tests.”

[13] abbreviates: Homo sapiens, MCF7, 72 h, neutral red assay, 72 h incubation.
Where [14] appears, read: HepG2, neutral red assay, 72 h incubation.
The mark [15] stands for this setting: neutral red assay, 72 h incubation, read-out: IC50 SPC212.
Setting [16] is: DLD-1, neutral red assay, 72 h incubation.

Read-outs that look alike come from different tables or passages of the source. A value given as a limit tells only on which side of the number the result lay.

For the compound `COc1cccc2c1C(=O)c1c(O)c3c(c(O)c1C2=O)C[C@@](O)(C(=O)CO)C[C@@H]3O[C@H]1C[C@H](N)[C@H](O)[C@H](C)O1` [Doxorubicin, reference compound], the IC50 in series [1] is under 100 µM; in series [3], 0.72 ± 0.13 µM; in series [4] (Homo sapiens, MCF7, 72 h) it was 0.35 ± 0.05 µM; in [6] (HepG2, 72 h), 0.18 ± 0.03 µM; in series [7], 0.59 ± 0.01 µM; in series [8] (read-out: IC50 SPC#), 0.07 ± 0.01 µM. In [9] (DLD-1, 72 h), the IC50 was 0.37 ± 0.05 µM. The “MMP, gate P2 (loss / depletion of MMP)” value in the series on MCF-7 cells [2] was 26%. Moreover, the “increase in ROS levels as compared with non-treated cells” value with MCF-7 cells [5] is given as “more than 2 fold”. The “Sub-G0/G1 (apoptotic) cells, % of cells” value in the series with MCF-7 cells [10] was 60%.
For `Cc1cc(O)c2c(c1)C(=O)c1cc(O)cc(O)c1C2=O` [Compound 2, emodin], the half-inhibitory concentration (IC50) in series [1] is under 100 µM; in series [3], 73.6 ± 3.52 µM; in series [4] (setting [13]) it was 37.6 ± 2.59 µM; in series [6] (setting [14]) it was 71.7 ± 4.52 µM; in series [7], over 148 µM; in series [8] (setting [15]) it was 99.3 ± 8.46 µM. Besides, the IC50 stood at 77.3 ± 8.77 µM in [9] (setting [16]); 99.3 µM in series [12] (Homo sapiens, A549, 72 h); 66.3 ± 6.19 µM in [12]. For the same compound, the “selectivity indexes (CRL2120 vs carcinoma cells), lower bound over the cancer cell lines” value in [1] was “above 1.49”. The selectivity ratio at 72 h in [11] was over 2.01. Also, the “selectivity index MCF-7” value in series [4] was over 3.94. The “selectivity index HepG2” value in series [6] is reported as over 2.07. The “selectivity index SPC212” value in series [8] was over 1.49. Also, in [9], the “selectivity index DLD-1” value is on record as over 1.92. Also, the “selectivity index A549” value in series [12] was over 2.23.
As to `CCCCC1=C(O)C(=O)C=C(O)C1=O` [Compound 7, 2,5-dihydroxy-3-butyl-2,5-cyclohexadiene-1,4-dione], the “tested cancer cell lines in which recordable IC50 values were obtained” value in series [1] (out of six cancer cell lines) is 5/6. For the same compound, the selectivity ratio at 72 h in series [11] was over 2.27. In addition, the IC50 in series [3] is 89.7 ± 8.8 µM; in series [4] (setting [13]), 64.6 ± 13.4 µM; in series [6] (setting [14]), 176 ± 28.5 µM; in [7] it was over 204 µM; in series [8] (setting [15]), 87.9 ± 5.66 µM; in series [9] (setting [16]), over 204 µM. Besides, in [12] (Homo sapiens, A549, 72 h), 68.6 ± 7.55 µM corresponded to half-maximal inhibition (IC50). Besides, in series [4], the “selectivity index MCF-7” value is listed as over 3.16. Moreover, in series [6], the “selectivity index HepG2” value was over 1.16. In addition, the “selectivity index SPC212” value in series [8] is over 2.32. Also, in series [12], the “selectivity index A549” value is given as over 2.97.
Consider `CCCC/C=C\CCCCCCCCCCCCCC1=C(OC(C)=O)C(OC(C)=O)C(C)=C(OC(C)=O)C1OC(C)=O` (stereo not shown) [Compound 13, 1,2,4,5-tetraacetate-3-methyl-6-(14-nonadecenyl)-cyclohexadi-2,5-diene], for which the IC50 in series [1] was under 100 µM; in series [3], 24.6 ± 2.71 µM; in series [4] (setting [13]), under 10 µM; in series [4] (neutral red assay, 72 h incubation) it was 9.25 ± 0.16 µM; in series [6] (setting [14]) it was 18.2 ± 1.46 µM; in series [7], 93.2 ± 1.17 µM. For the same compound, the IC50 in series [8] (setting [15]) amounted to 36.2 ± 3.08 µM; in series [9] (setting [16]) it was 25.1 ± 1.5 µM; in series [12] (Homo sapiens, A549, 72 h) it was 47.5 ± 3.56 µM. In [1], the “selectivity indexes (CRL2120 vs carcinoma cells), lower bound over the cancer cell lines” value is over 1.96. For the same compound, the selectivity ratio at 72 h in series [11] was 3.78. Besides, the “selectivity index MCF-7” value in series [4] came to 10.08. Also, the “selectivity index HepG2” value in series [6] is 5.13. For the same compound, the “selectivity index SPC212” value in series [8] was 2.57. The “selectivity index DLD-1” value in series [9] amounted to 3.72. Moreover, in series [12], the “selectivity index A549” value is on record as 1.96.
